Results as given in patent US10716773B2, “Compositions comprising 15-HEPE and methods of treating or preventing cancer and neurologic disease” (Afimmune Limited, priority 2015, dated 2020).
Several values for one entry are separate records, joined by “and”; a condition that tells them apart may be missing. Equal values may be shown once.

What was measured:
caspase-3/7 = assay: Staurosporine-induced caspase-3/7 activity in NHDF, measured in cell lysates with fluorogenic substrate Ac-DEVD-AMC; format: cell-based, human; conditions: staurosporine-stimulated NHDF; for Caspase-3/7 activity (Fluorescence 380 nm/440 nm) / Caspase-3/7 activity - Background (Fluorescence 380 nm/440 nm) / Caspese-3/7 activity/proteins: single replicates
Protocol: The potential inhibitory effect of compounds 15(S)-HEPE EE and EPA EE was evaluated on staurosporine-induced caspase activation in normal human dermal fibroblasts (NHDF). […] Normal human dermal fibroblasts (NHDF) were used at the 8th passage. […] Fibroblasts were seeded in 24-well plates and cultured for 24 hours in culture medium. The medium was then removed and replaced by assay medium containing or not (control) the test compounds and cells were pre-incubated for 24 hours. […] The cells were then incubated for 24 hours. Non-stimulated controls (without inducer) were performed in parallel. All experimental conditions were performed in n=3. […] Enzyme activity assay and protein quantification assay were performed in separated plates due to the fact that DTT used in the lysis buffer for caspase activity interferes with protein quantification. […] Lysis buffer: HEPES buffer (pH 7.4) containing EDTA, Triton X-100, NP-40 and DTT Assay Buffer: HEPES buffer (pH 7.4) containing NaCl, EDTA, NP-40, glycerol and DTT Substrate: Ac-DEVD-AMC, tested at 10 μM (stock solution at 1.5 mM in DMSO) Reference inhibitor: […] Ac-DEVD-AMC is a synthetic tetrapeptide fluorogenic substrate for caspase-3 and caspase-7 and contains the amino acid sequence of the PARP cleavage site at […]. […] Enzymes cleave the tetrapeptide between D and AMC resulting in the release of fluorogenic AMC, which can be quantified with a spectrofluorometer. […] In parallel, an additional control (assay buffer containing the substrate) was also performed to determine the background signal. At the end of incubation, the fluorescence intensity emitted by the reaction product (cleaved Ac-DEVD-AMC) was measured at wavelengths λex 380 nm and λem 440 nm using a spectrofluorimeter (SPECTRAmax® Gemini, Molecular Devices).

[1] = test system: normal human dermal fibroblasts (NHDF); assay: MTT reduction assay and observation of the cell layers: viability of fibroblasts after 48 hours of incubation; format: cell-based; conditions: for Visability (%): single replicates; on Morpholigical observations: key: +: normal population; +/−: growth reduction; −: toxicity; 0: cell mortality; grains of compound; opacity of the compound; *: morphological modification; agglutinated cells
Protocol: Normal human dermal fibroblasts (NHDF) were used at the 8th passage. Cells were cultured at 37° C., 5% CO2 in DMEM supplemented with L-glutamine 2 mM, 50 U/ml Penicillin, 50 μg/ml Streptomycin and 10% Foetal calf serum (FCS).

CC/C=C\C/C=C\C/C=C\C/C=C\C/C=C\CCCC(=O)OCC [EPA EE]
% inhibition (caspase-3/7; 0.001 μg/ml): −31% | % stimulated control (caspase-3/7; 0.001 μg/ml): 128% | Normalized data: Mean (caspase-3/7 activity/proteins) (caspase-3/7; 0.001 μg/ml): 113173 AU/mg | Caspase-3/7 activity (Fluorescence 380 nm/440 nm) (caspase-3/7; 0.001 μg/ml): 1457 AU and 1667 AU and 1637 AU | Caspase-3/7 activity - Background (Fluorescence 380 nm/440 nm) (caspase-3/7; 0.001 μg/ml): 1140 AU and 1350 AU and 1320 AU | Caspese-3/7 activity/proteins (caspase-3/7; 0.001 μg/ml): 100237 AU/mg and 128199 AU/mg and 111084 AU/mg | % inhibition (caspase-3/7; 0.01 μg/ml): −1% | % stimulated control (caspase-3/7; 0.01 μg/ml): 101% | Normalized data: Mean (caspase-3/7 activity/proteins) (caspase-3/7; 0.01 μg/ml): 89425 AU/mg | Caspase-3/7 activity (Fluorescence 380 nm/440 nm) (caspase-3/7; 0.01 μg/ml): 1359 AU and 1476 AU and 1472 AU | Caspase-3/7 activity - Background (Fluorescence 380 nm/440 nm) (caspase-3/7; 0.01 μg/ml): 1042 AU and 1159 AU and 1155 AU | Caspese-3/7 activity/proteins (caspase-3/7; 0.01 μg/ml): 89522 AU/mg and 89043 AU/mg and 89708 AU/mg | % inhibition (caspase-3/7; 0.1 μg/ml): 5% | % stimulated control (caspase-3/7; 0.1 μg/ml): 95% | Normalized data: Mean (caspase-3/7 activity/proteins) (caspase-3/7; 0.1 μg/ml): 84209 AU/mg | Caspase-3/7 activity (Fluorescence 380 nm/440 nm) (caspase-3/7; 0.1 μg/ml): 1474 AU and 1382 AU and 1558 AU | Caspase-3/7 activity - Background (Fluorescence 380 nm/440 nm) (caspase-3/7; 0.1 μg/ml): 1157 AU and 1065 AU and 1241 AU | Caspese-3/7 activity/proteins (caspase-3/7; 0.1 μg/ml): 83312 AU/mg and 79809 AU/mg and 89506 AU/mg | % inhibition (caspase-3/7; 1 μg/ml): −3% | % stimulated control (caspase-3/7; 1 μg/ml): 103% | Normalized data: Mean (caspase-3/7 activity/proteins) (caspase-3/7; 1 μg/ml): 90527 AU/mg | Caspase-3/7 activity (Fluorescence 380 nm/440 nm) (caspase-3/7; 1 μg/ml): 1423 AU and 1604 AU and 1486 AU | Caspase-3/7 activity - Background (Fluorescence 380 nm/440 nm) (caspase-3/7; 1 μg/ml): 1106 AU and 1287 AU and 1169 AU | Caspese-3/7 activity/proteins (caspase-3/7; 1 μg/ml): 87358 AU/mg and 96851 AU/mg and 87370 AU/mg | % inhibition (caspase-3/7; 10 μg/ml): 2% | % stimulated control (caspase-3/7; 10 μg/ml): 98% | Normalized data: Mean (caspase-3/7 activity/proteins) (caspase-3/7; 10 μg/ml): 86723 AU/mg | Caspase-3/7 activity (Fluorescence 380 nm/440 nm) (caspase-3/7; 10 μg/ml): 1335 AU and 1264 AU and 1458 AU | Caspase-3/7 activity - Background (Fluorescence 380 nm/440 nm) (caspase-3/7; 10 μg/ml): 1018 AU and 947 AU and 1141 AU | Caspese-3/7 activity/proteins (caspase-3/7; 10 μg/ml): 78044 AU/mg and 76787 AU/mg and 105337 AU/mg | % inhibition (caspase-3/7; 100 μg/ml): 61% | % stimulated control (caspase-3/7; 100 μg/ml): 45% | Normalized data: Mean (caspase-3/7 activity/proteins) (caspase-3/7; 100 μg/ml): 39319 AU/mg | effect on caspase-3/7 activity (in words) (caspase-3/7; 100 μg/ml): clear inhibitory effect | Caspase-3/7 activity (Fluorescence 380 nm/440 nm) (caspase-3/7; 100 μg/ml): 807 AU and 843 AU and 1068 AU | Caspase-3/7 activity - Background (Fluorescence 380 nm/440 nm) (caspase-3/7; 100 μg/ml): 490 AU and 526 AU and 751 AU | Caspese-3/7 activity/proteins (caspase-3/7; 100 μg/ml): 29572 AU/mg and 37623 AU/mg and 50763 AU/mg | effect on caspase-3/7 activity (in words) (caspase-3/7; tested from 0.001 to 10 μg/ml): no effect | Morpholigical observations ([1]; 0.001 μg/ml): + | Visability (%) Mean ([1]; 0.001 μg/ml): 100% | Visability (%) ([1]; 0.001 μg/ml): 99% and 97% and 104% | Morpholigical observations ([1]; 0.01 μg/ml): + | Visability (%) Mean ([1]; 0.01 μg/ml): 98% | Visability (%) ([1]; 0.01 μg/ml): 101% and 94% and 98% | Morpholigical observations ([1]; 0.1 μg/ml): + | Visability (%) Mean ([1]; 0.1 μg/ml): 99% | Visability (%) ([1]; 0.1 μg/ml): 99% (2×) and 98% | Morpholigical observations ([1]; 1 μg/ml): + | Visability (%) Mean ([1]; 1 μg/ml): 97% | Visability (%) ([1]; 1 μg/ml): 95% (2×) and 100% | Morpholigical observations ([1]; 10 μg/ml): + | Visability (%) Mean ([1]; 10 μg/ml): 97% | Visability (%) ([1]; 10 μg/ml): 94% and 98% and 100% | Morpholigical observations ([1]; 30 μg/ml): + | Visability (%) Mean ([1]; 30 μg/ml): 96% | Visability (%) ([1]; 30 μg/ml): 99% and 95% and 93% | Morpholigical observations ([1]; 100 μg/ml): + | Visability (%) Mean ([1]; 100 μg/ml): 100% | Visability (%) ([1]; 100 μg/ml): 102% and 98% and 100% | Morpholigical observations ([1]; 300 μg/ml): + | Visability (%) Mean ([1]; 300 μg/ml): 106% | Visability (%) ([1]; 300 μg/ml): 105% and 107% and 106%
